Assay results taken from ChEMBL document CHEMBL5126551, “Spiral molecules with antimalarial activities: A review” (Eur J Med Chem, 2022).
≈ marks a conversion by molar mass, not a printed value.

Experiments:
Plasmodium berghei = assay: Antiplasmodial activity against luciferase expressing hepatic stage Plasmodium berghei sporozoites infected in human Huh-7 cells assessed as inhibition of parasite infection preincubated with cells for 1 hrs followed by parasite infection and measured after 48 hrs by bioluminescence assay; type: functional, organism-based
Plasmodium falciparum [1] = assay: Antimalarial activity against Plasmodium falciparum K1 assessed as inhibition of parasite growth incubated for 72 hrs by DAPI-staining based microscopic analysis; type: functional, organism-based; conditions: K1, 72 h
Plasmodium falciparum [2] = assay: Antimalarial activity against Plasmodium falciparum NF54 assessed as inhibition of parasite growth incubated for 72 hrs by DAPI-staining based microscopic analysis; type: functional, organism-based; conditions: NF54, 72 h
Plasmodium falciparum [3] = assay: Antimalarial activity against chloroquine and quinine sensitive Plasmodium falciparum assessed as inhibition of parasite growth; type: functional, organism-based
Plasmodium falciparum [4] = assay: Antimalarial activity against Plasmodium falciparum Cam3.I^R539T assessed as reduction in parasite survival at 49 nM measured after 6 hrs relative to control; type: functional
Plasmodium falciparum [5] = assay: Antimalarial activity against Plasmodium falciparum Cam3.I^R539T assessed as reduction in parasite survival at 88 nM measured after 6 hrs relative to control; type: functional
Plasmodium falciparum [6] = assay: Antimalarial activity against Plasmodium falciparum Cam3.I^R539T assessed as reduction in parasite survival at 175 nM measured after 6 hrs relative to control; type: functional
Plasmodium falciparum [7] = assay: Antimalarial activity against Plasmodium falciparum Cam3.I^R539T assessed as reduction in parasite survival at 350 nM measured after 6 hrs relative to control; type: functional
Plasmodium falciparum [8] = assay: Antimalarial activity against Plasmodium falciparum Cam3.I^R539T assessed as reduction in parasite survival at 700 nM measured after 6 hrs relative to control; type: functional
Plasmodium falciparum [9] = assay: Antimalarial activity against chloroquine-sensitive Plasmodium falciparum 3D7 infected in human erythrocytes assessed as inhibition of parasite growth incubated for 48 hrs by parasite lactate dehydrogenase based colorimetric assay; type: functional, organism-based; conditions: 3D7, 48 h
Plasmodium falciparum [10] = assay: Antimalarial activity against chloroquine-resistant Plasmodium falciparum FCR3 infected in human erythrocytes assessed as inhibition of parasite growth incubated for 48 hrs by [3H]-hypoxanthine incorporation assay; type: functional, organism-based
Plasmodium falciparum [11] = assay: Antimalarial activity against Plasmodium falciparum 3D7 infected in human plasma assessed as inhibition of parasite growth by Giema staining based assay; type: functional, organism-based; conditions: 3D7, Plasma
Plasmodium falciparum [12] = assay: Antimalarial activity against chloroquine and antifolate resistant Plasmodium falciparum K1 infected in human erythrocyte preincubated for 24 hrs followed by hypoxanthine addition and measured after 18 to 20 hrs by [3H]-hypoxanthine incorporation assay; type: functional, organism-based
Plasmodium falciparum [13] = assay: Antimalarial activity against chloroquine-resistant Plasmodium falciparum K14 infected in human red blood cells assessed as inhibition of parasite growth incubated for 42 hrs by [3H]-hypoxanthine incorporation assay; type: functional, organism-based, Red blood cell; conditions: K14, Erythrocyte
Plasmodium falciparum [14] = assay: Antimalarial activity against Plasmodium falciparum 1 assessed as inhibition of parasite growth; type: functional, organism-based
Plasmodium falciparum [15] = assay: Antimalarial activity against Plasmodium falciparum HB3 assessed as inhibition of parasite growth; type: functional, organism-based
Plasmodium falciparum [16] = assay: Antimalarial activity against Plasmodium falciparum 7G8 assessed as inhibition of parasite growth; type: functional, organism-based
Plasmodium falciparum [17] = assay: Antimalarial activity against Plasmodium falciparum TM90C2B assessed as inhibition of parasite growth; type: functional, organism-based
Plasmodium falciparum [18] = assay: Antimalarial activity against Plasmodium falciparum D6 assessed as inhibition of parasite growth; type: functional, organism-based
Plasmodium falciparum [19] = assay: Antimalarial activity against Plasmodium falciparum V1/S assessed as inhibition of parasite growth; type: functional, organism-based
Plasmodium falciparum [20] = assay: Antimalarial activity against Plasmodium falciparum Dd2 assessed as inhibition of parasite growth; type: functional, organism-based
Plasmodium falciparum [21] = assay: Antimalarial activity against Plasmodium falciparum FCB assessed as inhibition of parasite growth; type: functional, organism-based
Plasmodium falciparum [22] = assay: Antimalarial activity against Plasmodium falciparum 3D7 assessed as inhibition of parasite growth; type: functional, organism-based
Plasmodium falciparum [23] = assay: Antimalarial activity against chloroquine resistant Plasmodium falciparum K1 assessed as inhibition of parasite growth by [3H]-hypoxanthine incorporation assay; type: functional, organism-based
Plasmodium falciparum [24] = assay: Antimalarial activity against chloroquine sensitive Plasmodium falciparum NF54 assessed as inhibition of parasite growth by [3H]-hypoxanthine incorporation assay; type: functional, organism-based
Plasmodium falciparum [25] = assay: Antimalarial activity against chloroquine-resistant Plasmodium falciparum K1 infected in human erythrocytes incubated for 72 hrs by parasite lactate dehydrogenase assay; type: functional, organism-based; conditions: K1, Erythrocyte
[26] = Cytotoxicity against human MRC5 cells assessed as inhibition of cell growth incubated for 7 days by MTT assay; type: toxicity, cell-based

In the case of `CC(C)(C)OC(=O)C1C(c2ccccc2)(c2ccccc2)C12C(=O)N1[C@@H](C(=O)OC(c3ccccc3)c3ccccc3)C(C)(C)S[C@@H]12` (stereo partly specified), the IC50 (Plasmodium berghei) is reported as 2670 nM.

For `C=CCOc1c2n(c3ccccc13)C=CC[C@@]21C(=O)c2ccccc2N1CC=C`, the IC50 (Plasmodium falciparum [1]) was ≥ 5000 nM and the IC50 (Plasmodium falciparum [2]) was ≥ 5000 nM.

In the case of `CC(C)OC(=O)C1=C2N=C(c3cccnc3)NN2C2=C(C(=O)CCC2)C12C(=O)Nc1ccc(F)cc12` (stereo unspecified), the IC50 (Plasmodium falciparum [3]) is reported as 454 nM.

Work on `CC1(C)CC(O)(Cc2ccc(C3CCC4(CC3)OOC3(O4)C4CC5CC(C4)CC3C5)cc2)CC(C)(C)N1` (stereo unspecified) yielded an Activity (Plasmodium falciparum [4]) of 1.29%, an Activity (Plasmodium falciparum [5]) of 0.17% and an Activity (Plasmodium falciparum [6]) of 0.12%. It also gave an Activity (Plasmodium falciparum [7]) of 0% and an Activity (Plasmodium falciparum [8]) of 0%.

With `COc1cc([C@@H]2c3cc(Br)ccc3NC3(C(=O)Nc4ccccc43)[C@H]2C)ccc1O` (stereo partly specified) the IC50 (Plasmodium falciparum [9]) was 1310 nM and the IC50 (Plasmodium falciparum [10]) was 1520 nM.

Compound `CCOC(=O)C1=C2N=C(c3cccnc3)NN2C2=C(C(=O)CCC2)C12C(=O)Nc1ccccc12` (stereo unspecified) has an IC50 (Plasmodium falciparum [3]) of 422 nM.

`CC1=CC(=O)CC(C)(C)[C@@]12C=C[C@H](C)O2` showed an IC50 (Plasmodium falciparum [11]) of 27 nM.

In the case of `C=CCN1C(=O)[C@@]2(c3ccccc31)C(c1ccccc1)C=CN1N3C=CC=CC3C(=O)[C@@]12C/C=C/c1ccccc1` (stereo partly specified), the IC50 (Plasmodium falciparum [12]) is reported as 8300 nM.

`C=CCN1C(=O)[C@]2(CC=CN3c4ccccc4C(=O)[C@@]32CC=C)c2ccccc21` showed an IC50 (Plasmodium falciparum [12]) of 9300 nM.

In the case of `O=C1OC[C@H](CN2C3=C4C(=O)c5ccccc5C4C[C@@H]4CO[C@@]3(O4)c3ccccc32)O1` (stereo partly specified), the IC50 (Plasmodium falciparum [1]) is reported as 9 nM and the IC50 (Plasmodium falciparum [2]) is reported as 9 nM.

For `CC(=O)O[C@@H]1[C@H](C)[C@@H](C)O[C@@]2([C@@H]1C)[C@@H](C)C=C(C)C(=O)[C@@H]2C`, the IC50 (Plasmodium falciparum [11]) was 16000 nM.

In the case of `c1cc(C2CCC3(CC2)OOC2(O3)C3CC4CC(C3)CC2C4)ccc1OCCC1CCNCC1` (stereo unspecified), the Activity (Plasmodium falciparum [4]) is reported as 0.76%, the Activity (Plasmodium falciparum [5]) is reported as 0% and the Activity (Plasmodium falciparum [6]) is reported as 0%. It also gave an Activity (Plasmodium falciparum [7]) of 0% and an Activity (Plasmodium falciparum [8]) of 0%.

With `CCN(CC)c1ccc(N2C(=O)C(Oc3ccccc3)C23c2ccccc2-c2ccccc23)cc1` (stereo unspecified) the IC50 (Plasmodium falciparum [13]) was 6400 nM.

Compound `CCOC(=O)C1=C2N=C(c3cccnc3)NN2C2=C(C(=O)CCC2)C12C(=O)Nc1ccc(F)cc12` (stereo unspecified) has an IC50 (Plasmodium falciparum [3]) of 122 nM.

`FC1CCN(CCOc2ccc(C3CCC4(CC3)OOC3(OO4)C4CCCC3CCC4)cc2)CC1` (stereo unspecified) gave an IC50 (Plasmodium falciparum [14]) of 4.2 nM, an IC50 (Plasmodium falciparum [15]) of 4.2 nM and an IC50 (Plasmodium falciparum [16]) of 2.9 nM. For the same compound, the IC50 (Plasmodium falciparum [17]) was 7.3 nM, the IC50 (Plasmodium falciparum [18]) was 8.5 nM and the IC50 (Plasmodium falciparum [19]) was 4.2 nM. The IC50 (Plasmodium falciparum [20]) was 7.7 nM, the IC50 (Plasmodium falciparum [21]) was 14 nM and the IC50 (Plasmodium falciparum [22]) was 5.1 nM.

With `NCC1CCC2(CC1)OOC1(O2)C2CC3CC(C2)CC1C3` (stereo unspecified) the IC50 (Plasmodium falciparum [23]) was 0.39 ng/mL (≈ 1.33 nM) and the IC50 (Plasmodium falciparum [24]) was 0.42 ng/mL (≈ 1.43 nM).

For `CC(C)(N)CNC(=O)CC1CCC2(CC1)OOC1(O2)C2CC3CC(C2)CC1C3` (stereo unspecified), the IC50 (Plasmodium falciparum [23]) was 0.57 ng/mL (≈ 1.45 nM) and the IC50 (Plasmodium falciparum [24]) was 0.54 ng/mL (≈ 1.38 nM).

In the case of `COc1cc2c(cc1O)CCN1CC=C3C=C[C@H](OC)C[C@]321` [ERYSODINE], the IC50 (Plasmodium falciparum [25]) is reported as 6500 nM and the IC50 at 7 days [26] is reported as > 64000 nM.

In the case of `COc1cc2c(cc1OC)[C@]13C[C@@H](OC)C=CC1=CCN3CC2` [ERYSOTRINE], the IC50 (Plasmodium falciparum [25]) is reported as 20600 nM and the IC50 at 7 days [26] is reported as > 64000 nM.

In the case of `COc1cc2c(cc1O)[C@]13C[C@@H](OC)C=CC1=CCN3CC2` [ERYSOVINE], the IC50 (Plasmodium falciparum [25]) is reported as 4100 nM and the IC50 at 7 days [26] is reported as > 64000 nM.

For `CO[C@H]1C=CC2=CCN3CCc4cc5c(cc4[C@]23C1)OCO5` [ERYTHRALINE], the IC50 (Plasmodium falciparum [25]) was 7300 nM and the IC50 at 7 days [26] was > 64000 nM.
